The numbers were not newly measured in patent publication US12274791B2, “Multiple unit dosage form having a therapeutic agent in combination with a nutritional supplement” (Bonafide Health, LLC, priority 2007, dated 2025), which cites them from elsewhere.

Like-named read-outs stand apart in the source and are kept apart here.

Consider `[Cl][Cr]([Cl])[Cl]` [chromium chloride], for which, for the setting “rats, levels several thousand times the upper limit of the ESADDI for chromium for humans (based on body weight)”, the toxic effects entry is listed as “without toxic effects”. Consider Chromium picolinate, for which the toxic effects entry (rat, in vivo) was “without toxic effects”.
